Measurements as given in BindingDB's records for doi:10.1002/cmdc.202100576 (Experimental Drug Development Centre, 2021).
Where “and” joins values, the source holds several entries; their conditions need not be identical. Equal entries are not always repeated.

Each molecule was assayed against Replicase polyprotein 1ab (Middle East respiratory syndrome-related coronavirus (isolate United Kingdom/H123990006/2012), UniProt K9N7C7) (assay: Various Assay).

Structure (SMILES)	IC50
CC(C)C[C@H](NC(=O)OC1CCN(C(=O)OC(C)(C)C)CC1)C(=O)N[C@@H](C[C@@H]1CCNC1=O)C(O)S(=O)(=O)O (some centres undefined) [cmdc.202100576, 20b]	300 nM and 600 nM
O=C(NCc1ccccc1)C(=O)[C@H](C[C@@H]1CCCNC1=O)NC(=O)[C@H](CC1CCCCC1)NC(=O)c1cnc2ccccc2n1 [cmdc.202100576, 23f]	5 nM
CC(C)C[C@H](NC(=O)OC1(Cc2ccccc2)CCN(C(=O)OC(C)(C)C)CC1)C(=O)N[C@@H](C[C@@H]1CCNC1=O)C(O)S(=O)(=O)O (some centres undefined) [cmdc.202100576, 20d]	600 nM
O=C(NCc1ccccc1)C(=O)[C@H](C[C@@H]1CCCNC1=O)NC(=O)[C@H](CC1CCCCC1)NC(=O)c1cc2ccccc2[nH]1 [cmdc.202100576, 23e]	2 nM
O=C(NCc1ccccc1)C(=O)[C@H](C[C@@H]1CCCNC1=O)NC(=O)[C@H](Cc1ccccc1)NC(=O)c1cnc2ccccc2n1 [cmdc.202100576, 23d]	2 nM
O=C(NCc1ccccc1)C(=O)[C@H](C[C@@H]1CCCNC1=O)NC(=O)[C@H](Cc1ccccc1)NC(=O)c1cc2ccccc2[nH]1 [cmdc.202100576, 23c]	< 1 nM
CC(C)C[C@H](NC(=O)OC1CCN(S(C)(=O)=O)CC1)C(=O)N[C@@H](C[C@@H]1CCNC1=O)C(O)S(=O)(=O)O (some centres undefined) [cmdc.202100576, 20c]	500 nM
O=C(NC1CCCCC1)C(=O)[C@H](C[C@@H]1CCCNC1=O)NC(=O)[C@H](CC1CCCCC1)NC(=O)c1cc2ccccc2o1 [cmdc.202100576, 23b]	< 1 nM
CC(C)C[C@H](NC(=O)OCCc1cccc(Cl)c1)C(=O)N[C@@H](C[C@@H]1CCNC1=O)C(O)S(=O)(=O)O (some centres undefined) [cmdc.202100576, 20f]	700 nM

What follows are molecules tested against Replicase polyprotein 1ab (Severe acute respiratory syndrome coronavirus 2, UniProt P0DTD1) (assay: Various Assay).

Structure (SMILES)	IC50
O=C[C@H](CC1CCNC1=O)NC(=O)[C@H](Cc1ccccc1)NC(=O)c1ccc2c(c1)OCO2 (some centres undefined) [cmdc.202100576, 18e]	78 nM
O=C[C@H](CC1CCNC1=O)NC(=O)[C@H](Cc1ccccc1)NC(=O)c1cc2ccccc2[nH]1 (some centres undefined) [cmdc.202100576, 18b]	34 nM
CC(C)[C@H](NC(=O)c1cc2ccccc2[nH]1)C(=O)N[C@@H](Cc1ccccc1)C(=O)N[C@H](C=O)CC1CCNC1=O (some centres undefined) [cmdc.202100576, 18d]	68 nM

These molecules were tested against Replicase polyprotein 1ab (Severe acute respiratory syndrome coronavirus, UniProt P0C6X7) (assay: Various Assay).

Structure (SMILES)	IC50	Ki
CC(C)C[C@H](NC(=O)[C@H](CN(C)C)NC(=O)OCc1ccccc1)C(=O)N[C@@H](C[C@@H]1CCNC1=O)C(=O)C(=O)NC(C)(C)C [cmdc.202100576, 22d]	7 nM	
COc1cccc2[nH]c(C(=O)N[C@@H](CC(C)C)C(=O)N[C@@H](C[C@@H]3CCNC3=O)C(=O)COC(=O)C3CC3)cc12 [WO2005113580-Ex-37]	162 nM	
CC(C)C(=O)Nc1ccc(N(C(=O)Cn2nnc3ccccc32)[C@H](C(=O)NCc2ccccc2)c2cccc(F)c2)cc1 [cmdc.202100576, 19d]	1600 nM	
COC(=O)/C=C/[C@H](C[C@@H]1CCNC1=O)NC(=O)[C@H](CC(C)C)NC(=O)[C@@H](NC(=O)OCc1ccccc1)C(C)NC(=O)C(C)(C)C (some centres undefined) [cmdc.202100576, 5f]		38 nM
O=C(Nc1ccc(NC(=O)c2cc(B(O)O)cc([N+](=O)[O-])c2)cc1)c1cc(B(O)O)cc([N+](=O)[O-])c1 [acs.jmedchem.1c00409_ST.31]		22 nM
O=C(Sc1nnc(C(F)(F)F)[nH]1)C1CCC(C#Cc2ccccc2)O1 (centres undefined) [cmdc.202100576, 7c]	3000 nM	
CC(C)(C)NC(=O)C(=O)[C@H](C[C@@H]1CCNC1=O)NC(=O)[C@H](CC1CCCCC1)NC(=O)[C@H](Cc1cccc2ccccc12)NC(=O)OCc1ccc(OCN2CCOCC2)cc1 [cmdc.202100576, 22b]	6.6 nM	
O=C(Oc1ccc(OC(=O)c2cc(B(O)O)cc([N+](=O)[O-])c2)cc1)c1cc(B(O)O)cc([N+](=O)[O-])c1 [cmdc.202100576, 4b]		6700 nM
CC(C)C[C@H]1C(=O)N[C@H](C=O)CCC(=O)NCCCn2cc(nn2)C[C@@H]1CC(=O)OCc1ccccc1 [cmdc.202100576, 16c]	15500 nM	
O=C(O)c1cc(O)cc(B(O)O)c1 [cmdc.202100576, 4d]		3500 nM
Fc1ccc(SSc2nccs2)cc1 [cmdc.202100576, 17f]	2200 nM	
CC(C)C[C@@H](NC(=O)OCc1ccccc1)C(=O)N[C@H](CC1CCNC1=O)C(=O)C(=O)NC(C)C (some centres undefined) [cmdc.202100576, 14d]	4700 nM	
COC(C)[C@H](NC(=O)OCc1ccccc1)C(=O)N[C@@H](CC(C)C)C(=O)N[C@@H](C[C@@H]1CCNC1=O)C(=O)C(=O)NC(C)C (some centres undefined) [cmdc.202100576, 22c]	6.8 nM	
O=C[C@H](CC1CCNC1=O)NC(=O)[C@H](Cc1ccccc1)NC(=O)c1ccc2c(c1)OCO2 (some centres undefined) [cmdc.202100576, 18e]	100 nM	
CC(C)C[C@@H](NC(=O)[C@H](Cc1cccc2ccccc12)NC(=O)OCc1ccccc1)C(=O)N[C@@H](C=O)CC1CCNC1=O (some centres undefined) [cmdc.202100576, 14e]	230 nM	
CC(C)C(=O)Nc1ccc(N(C(=O)Cn2nnc3ccccc32)[C@H](C(=O)NCc2ccccc2)c2ccc(Cl)c(F)c2)cc1 [cmdc.202100576, 19b]	800 nM	
C=C(N[C@H](C=O)CC1CCNC1=O)[C@H](Cc1ccccc1)NC(=O)[C@@H](NC(=O)c1cncc(F)c1)C(C)C (some centres undefined) [cmdc.202100576, 18c]	35 nM	
O=C(Oc1ccc(S(=O)(=O)c2ccc(OC(=O)C(Cl)=C(Cl)Cl)cc2Cl)cc1)C(Cl)=C(Cl)Cl [cmdc.202100576, 7b]	900 nM	
CN1C(=O)C(=O)c2cc(C(=O)N3CCOCC3)ccc21 [cmdc.202100576, 13d]	36400 nM	
CC(C)C[C@H](NC(=O)[C@H](CN1CCC(F)CC1)NC(=O)OCc1ccccc1)C(=O)N[C@@H](C[C@@H]1CCNC1=O)C(=O)C(=O)NC(C)C [cmdc.202100576, 22f]	7 nM	
Cc1ccc(SSc2nccs2)cc1 [cmdc.202100576, 17b]	1300 nM	
CC(C)(C)c1ccc(N(C(=O)c2c[nH]cn2)[C@H](C(=O)NC2CCCC2)c2cccnc2)cc1 [cmdc.202100576, 19e]	1700 nM	
O=C[C@H](CC1CCNC1=O)NC(=O)[C@H](Cc1ccccc1)NC(=O)c1cc2ccccc2[nH]1 (some centres undefined) [cmdc.202100576, 18b]	30 nM	
CC1CCN(C(=O)c2ccc3c(c2)C(=O)C(=O)N3Cc2ccc3ccccc3c2)CC1 [cmdc.202100576, 13b]	19700 nM	

Structure (SMILES)	IC50	Ki
Cc1cc(C(=O)N[C@@H](C)C(=O)N[C@H](C(=O)N[C@@H](CC(C)C)C(=O)N[C@H](C=CC(=O)OCc2ccccc2)C[C@@H]2CCNC2=O)C(C)C)no1 [the N3 Compound]	9000 nM	
CC(C)C[C@H](NC(=O)[C@H](CN1CCOCC1)NC(=O)OCc1ccccc1)C(=O)N[C@@H](C[C@@H]1CCNC1=O)C(=O)C(=O)NC(C)C [cmdc.202100576, 22e]	7 nM	
CC(C)C[C@H](NC(=O)c1nc2ccccc2[nH]1)C(=O)N[C@H](C=O)C[C@@H]1CCNC1=O [WO2006061714-ID-09]	30 nM	
O=C(Nc1ccc(N(C(=O)Cn2nnc3ccccc32)[C@H](C(=O)NCc2ccccc2)c2ccsc2)cc1)C1CC1 [cmdc.202100576, 19f]	2000 nM	
O=c1c(O[C@@H]2O[C@H](CO[C@@H]3OC[C@H](O)[C@H](O)[C@H]3O)[C@@H](O)[C@H](O)[C@H]2O)c(-c2ccc(O)c(O)c2)oc2cc(O)cc(O)c12 [cmdc.202100576, 12c]	31600 nM	
O=C[C@H](CC1CCNC1=O)NC(=O)[C@H](Cc1ccccc1)NC(=O)c1cc2cc(F)ccc2[nH]1 (some centres undefined)	111 nM	
O=C1c2c(O)cc(O)cc2O[C@@H](c2ccc(O)c(O)c2)[C@@H]1O [cmdc.202100576, 15]	73000 nM	
COc1cccc2[nH]c(C(=O)N(C)[C@@H](CC(C)C)C(=O)N[C@@H](C[C@@H]3CCNC3=O)C(=O)CO)cc12 [WO2005113580-Ex-29]	83 nM	
O=C1C(=O)N(Cc2ccc3ccccc3c2)c2ccc(C(=O)N3CCCCC3)cc21 [cmdc.202100576, 13f]	87800 nM	
O=C1C(=O)N(Cc2ccccc2)c2ccc(C(=O)N3CCCC3)cc21 [cmdc.202100576, 13c]	22900 nM	
CC(C)C[C@@H](NC(=O)OCc1ccccc1)C(=O)N[C@@H](C=O)CC1CCNC1=O (some centres undefined) [cmdc.202100576, 14b]	3500 nM	
CC(C)[C@H](NC(=O)c1cc2ccccc2[nH]1)C(=O)N[C@@H](Cc1ccccc1)C(=O)N[C@H](C=O)CC1CCNC1=O (some centres undefined) [cmdc.202100576, 18d]	50 nM	
CC(C)C(=O)Nc1ccc(N(C(=O)Cn2nnc3ccccc32)[C@H](C(=O)NCc2ccccc2)c2ccc(O)cc2)cc1 [cmdc.202100576, 19c]	1100 nM	
CC(=O)Nc1cnc(SSc2ccccc2[N+](=O)[O-])s1 [cmdc.202100576, 17c]	1900 nM	
CC(C)C[C@H](NC(=O)[C@@H](NC(=O)OCc1ccccc1)C(C)OC(C)(C)C)C(=O)N[C@H](/C=C/C(=O)OC1CC1)C[C@@H]1CCNC1=O (some centres undefined) [cmdc.202100576, 5e]		99 nM
COC(=O)c1c[nH]c(SSc2ccccc2[N+](=O)[O-])n1 [cmdc.202100576, 17e]	2000 nM	
O=C1C(=O)N(Cc2ccc3ccccc3c2)c2ccc(C(=O)N3CCCC3)cc21 [cmdc.202100576, 13e]	70300 nM	
COc1cccc2[nH]c(C(=O)N[C@@H](CC(C)C)C(=O)N[C@@H](C[C@@H]3CCNC3=O)C(C)=O)cc12 [WO2006061714, P38.5]	2300 nM	
O=C(Oc1c(Cl)cc(Cl)cc1[N+](=O)[O-])c1cc(B(O)O)cc([N+](=O)[O-])c1 [cmdc.202100576, 4e]		6900 nM
Nc1cc(B(O)O)cc(C(=O)OCc2cccc(B(O)O)c2)c1 [cmdc.202100576, 4c]		3500 nM
CCOC(=O)/C=C/[C@@H](C[C@H]1CCNC1=O)NC(=O)[C@@H](CC(C)C)NC(=O)[C@H](NC(=O)OCc1ccccc1)C(C)OC(C)(C)C (some centres undefined) [cmdc.202100576, 5b]		58 nM
CC(C)C[C@@H](NC(=O)[C@H](Cc1cccc2ccccc12)NC(=O)OCc1ccccc1)C(=O)N[C@H](CC1CCNC1=O)C(=O)C(=O)NC(C)C (some centres undefined) [cmdc.202100576, 14f]	810 nM	
O=[N+]([O-])c1ccccc1SSc1nccs1 [cmdc.202100576, 17d]	2000 nM	
